Experimental data: patent publication US5646185A, “Tumor treatment method” (priority 1993, dated 1997)

What was measured:
[1] = system: A549 human adenocarcinoma cells; assay: Survival (colony forming) assay of tumor cells under aerobic or hypoxic conditions with drug treatment; conditions: for aerobic cytotoxicity of the drug by itself: TPA 1 uM, PDA 1 uM, OAG 200 uM, thapsigargin 2 uM, compound 48/80 50 mg/ml, pentoxyfylline 1 mM; for effect on cell survival in normally oxygenated (aerated) cells: aerated A549 cells; for reduction of cell survival in hypoxic cells relative to the cell survival fraction with hypoxia alone: 20 hours of hypoxia (0.02% O2)
Experimental: A549 human adenocarcinoma cells were maintained in culture with alpha MEM containing 10% fetal calf serum. Cells were plated two days before hypoxia treatment in 60 mm glass (Corning) tissue culture dishes with notched sides at a density of 1×10^6 cells/dish. Hypoxia treatment of cells may be performed in any method known and available to those skilled in the art.
On the day of the hypoxia treatment, cells were re-fed with fresh media and incubated 4-6 hours before being exposed to hypoxia. The petri dishes were preferably then placed in specially designed aluminum hypoxia chambers that are prewarmed overnight at 37° C. The chambers were sealed and subjected to successive rounds of evacuation followed by flushing with 95% N2 /5% CO2 while slowly being agitated on a reciprocating shaker. The chambers were then placed in a 37° C. incubator and kept on a reciprocating shaker for the duration of the hypoxic treatment.
Oxygen concentration may be monitored with the use of a Clark-type electrode, such as commercially available from Controls Katharobic, Edmonton, Canada.
After hypoxic treatment, the seals to the chambers were broken, and the cells were washed with phosphate buffered saline, trypsinized, and then plated into tissue culture dishes to assay for colony forming ability.
All drugs were made from fresh stocks on the day of the treatment. In the combined drug and hypoxia treatments, the cells were pretreated for one hour with the drug before being exposed to hypoxia and then plated into tissue culture plates. Cells were then treated in accordance with several different methods: 1) exposure of the cells to thapsigargin for one hour prior to and continuous exposure for the duration of the hypoxia, and then plated for survival; 2) one hour exposure to the PKC activator drug in standard air followed by continuous exposure for the duration of hypoxia, and then plated for survival; 3) continuous exposure during hypoxia to TPA followed by immediate plating for survival; 4) 19 hour hypoxia treatment followed by one hour exposure to TPA in air or hypoxia using a Bactron II anaerobic chamber (Sheldon Labs, Cornelius, Oreg.), and then plating for survival; 5) continuous exposure during 19 hours of hypoxia with phospholipase inhibitors (compound 48/80 and pentoxyfylline), exposure to TPA for 1 hour in air, and then plating for survival.
TPA, PDA, staurosporine, compound 48/80, and pentoxyfylline are commercially available from Sigma Chemicals, St. Louis, Mo. Thapsigargin, herbimycin A, and genistein are commercially available from Gibco/BRL, Gaithersberg, Md.
After various experimental treatments, cells were plated into Nunc tissue culture plates at the appropriate concentrations in triplicate. The plates are placed in a 37° C. incubator and stained 10 days after the experiment with 1% crystal violet in 10% methanol. Viable colonies are defined as colonies with 50 or more cells.

[2] = system: PKC-epsilon; assay: Western blot of PKC epsilon levels in hypoxic tumor cells; assay type: cell-based, human; conditions: for effect on PKC epsilon induction/activation by hypoxia and TPA: alone or in combination, FIG. 9
Experimental: Western blotting methods, as detailed in Example 2, were used to validate that the treatment method of the invention increases levels of PKC. […] Little accumulation is seen before 9 hours of hypoxic exposure.
Cells were lysed in a 50 mM phosphate buffer, sonicated with 4.5 second pulses of 75 W with cooling on ice between pulses, and followed by 3 rounds of freezing/thawing. Protein concentrations of each sample may be estimated using the bicinchoninic acid method. 200 μg of protein were loaded per lane. After running for 2 hours at 40 mA in a 7.5% polyacrylamide gel, the gel is transferred onto Hybond ECL, (Amersham, Arlington Heights, Ill.) for 2 hours with the use of a Bio-Rad semi-dry transfer system. After the transfer, the gel may be stained with 0.15% Coomassie blue to ensure uniform transfer. […] Preferably, the membrane is probed using the method described in Kim, et al., which is incorporated herein by reference, and autoradiographed utilizing enhanced chemiluminescence (ECL) according to the manufacturer's protocol (Amersham, Arlington Heights, Ill.).

[3] = target: protein kinase C (PKC); assay: Protein kinase C (PKC) activation assay; assay type: biochemical; conditions: approximate
Experimental: The EC50 is the concentration of compound that produces half-maximal stimulation of protein kinase C activity in a given assay.
Protein kinase C activation is measured in an assay that measures PKC phosphorylation activity using as substrate for PKC myelin basic protein. […] The reaction was initiated by an appropriate amount of crude cytosol extract. The phosphorylated product from 10 μl of reaction mixture was quantified using phospho-cellulose paper and washing method of Cook, et al. Background ^32 P incorporation in the absence of calcium and phosphatidyl serine/diolein and in the presence of 1 mM EGTA was subtracted from total incorporation in the complete PKC assay reaction mixture to determine the extent of PKC-dependent phosphorylation.
Suitable for use in this assay as a PKC source is either a crude extract, prepared as below, or, more preferably, purified PKC. Purified PKC is obtained from commercial sources.

[4] = system: A549 human adenocarcinoma cells; assay: Pulsed-field gel electrophoresis of DNA degradation in hypoxia-treated cells; assay type: cell-based; conditions: added to hypoxia treated cells
Text: The mechanism of cell death by hypoxia appears to be necrosis rather than apoptosis. Using pulsed-field gel electrophoresis, a steady increase in DNA degradation as a function of time under hypoxia may be found. The methods followed those given in Example 2. The pattern of DNA degradation (not shown) is not one that is characteristic of apoptosis. The DNA was not fragmented into distinct nucleosome ladders, which is one of the hallmark characteristics of apoptosis; rather, it separated as a smear which is indicative of death by necrosis.
Pulsed-field gel electrophoresis may be performed in any manner known and available to those skilled in the art. One preferred method is described in Giaccia, 1992b, which is incorporated herein by reference. Briefly, fresh media was added to all of the treatment groups on the day of the treatment. After treatment, cells were washed with phosphate buffered saline (PBS), trypsinized, and resuspended in 1% agarose/PBS. The cells embedded in agarose were allowed to solidify in glass tubes and then cut into 5 mm plugs. The plugs were lysed in 0.5M EDTA, 1% sarkosyl, and 1 mg/ml proteinase K (Boehringer Mannheim, Indianapolis), and incubated at 50° C. for 16 hours in this lysis buffer.
After dialyzing the plugs against 25 volumes of 10 mM Tris and 1 mM EDTA for 4 hours, the plugs were then treated with 20 mg/ml RNase A for 3 hours at 37° C. […]

SMILES	aerobic cytotoxicity of the drug by itself [1]	effect on cell survival in normally oxygenated (aerated) cells ([1]; FIG. 3)	reduction of cell survival in hypoxic cells relative to the cell survival fraction with hypoxia alone ([1]; FIG. 3)	effect on PKC epsilon induction/activation by hypoxia and TPA [2]	also measured
CCCCCCCC/C=C\CCCCCCCC(=O)OCC(CO)OC(C)=O (stereo not shown) [OAG, 2-acetyl-1-oleoylglycerol]	little or no aerobic cytotoxicity	none of the PKC activators had an appreciable effect on cell survival	–	–	–
CCCCCCCCCC(=O)O[C@@H]1[C@@H](C)[C@@]2(O)[C@@H](C=C(CO)C[C@@]3(O)C(=O)C(C)=C[C@@H]23)[C@@H]2C(C)(C)[C@]12OC(=O)CCCCCCCCC [PDA, 4α-phorbol-12-13-didecanoate]	little or no aerobic cytotoxicity	–	–	–	effect on cell survival (control phorbol ester) ([1]; aerobic and hypoxic A549 cells, FIG. 3): indistinguishable from no drug treatment; effect on steady state levels of PKC ([2]; data not shown): has no effect
CCCCCCCCCCCCCC(=O)O[C@@H]1[C@@H](C)[C@@]2(O)[C@@H](C=C(CO)C[C@]3(O)C(=O)C(C)=C[C@@H]23)[C@@H]2C(C)(C)[C@]12OC(C)=O [TPA, 12-O-tetradecanoyl-phorbol-13-acetate]	little or no aerobic cytotoxicity	none of the PKC activators had an appreciable effect on cell survival	about 1,000 fold	–	EC50 [3]: ~1 µM; DNA fragmentation over that found with hypoxia treatment alone [4]: does not increase DNA fragmentation; selective killing of hypoxic versus aerobic cells ([1]; 1 μM, FIG. 3): selectively killed hypoxic, but not aerobic cells; increase in PKC levels over that of hypoxia alone ([2]; one hour exposure following 19 hours of hypoxia, FIG. 7B, 60 min): 5 fold
COC1C=CC=C(C)C(=O)NC2=CC(=O)C=C(C2=O)C(OC)C(C)CC(OC)C(OC)C(C)C=C(C)C1OC(N)=O (stereo not shown) [herbimycin A]	–	–	–	has no effect on PKC induction	–
CC(=O)CCCCn1c(=O)c2c(ncn2C)n(C)c1=O [pentoxyfylline]	–	–	–	do not inhibit PKC activation	protection against TPA mediated hypoxic cell killing (increase in survival) ([1]; inhibitor during 19 hours of hypoxia, then TPA 1 hour, FIG. 8): 100 fold
C/C=C(/C)C(=O)O[C@H]1C(C)=C2[C@H]([C@@H]1OC(=O)CCCCCCC)[C@@](C)(OC(C)=O)C[C@H](OC(=O)CCC)[C@@]1(O)[C@H]2OC(=O)[C@@]1(C)O [thapsigargin]	little or no aerobic cytotoxicity	none of the PKC activators had an appreciable effect on cell survival	about 1,000 fold	–	selective killing of hypoxic cells ([1]; 2 μM, FIG. 3): selectively killed hypoxic cells
